Entries after “also recorded” stand apart in the source; their conditions may differ.
What was measured:
[1] = test system: V9m reporter cell line expressing a 15-PGDH luciferase fusion construct; experiment: 15-PGDH-luciferase fusion gene reporter induction, V9m cell line; format: cell-based; details: […], % increased luciferase activity over basal level
Outline: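 Colon cancer reporter lines were treated with compound at 2.5 uM or 7.5 uM. Luciferase activity is expressed as % increase over basal level in DMSO vehicle-treated cells, where 100 means a doubling.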

A549 cells = experiment: PGE2 levels in medium of IL1-beta stimulated A549 cells; format: cell-based
Hepatocyte stability = format: in vitro ADME; details: result in words
Method: Time to inhibition refers to the time needed to inhibit the generation of NADH by 15-PGDH from the moment with drug is added into the reaction mix. Delta™ refers to the shift in melting temperature of recombinant 15-PGDH in the presence of drug (with cofactor NADH also present). Concentration of Full Cell Line Reporter Induction refers to the concentration of drug that needs to be added to reporter cell line to achieve maximal induction of the 15-PGDH-luciferase gene fusion reporter cassette, as measured by luciferase assays. Hepatocyte stability refers to the half-life of compound in the presence of hepatocytes in culture. Toxicity refers to the concentration of compound needed to decrease cell numbers in a cell culture assay.

[2] = test system: CD45.2 marked C57BL/6J donor marrow in lethally irradiated CD45.1 mice; experiment: Competitive bone marrow transplant, chimerism; format: in vivo; details: donor 5 mg/kg IP daily for 3 doses; weeks 12 and 16
Method: On day 3 mice were sacrificed, marrow flushed and mixed at a 1:1 ratio with vehicle treated CD45.1 marrow. 2 million whole BM cells were injected into the tail vein of lethally irradiated CD45.1 mice and percent chimerism measured via flow cytometry at weeks 8, 12, 16.

C57BL/6J and FVB mice = experiment: Liver regeneration after partial hepatectomy; format: in vivo
FVB male mice = experiment: Dextran sodium sulfate (DSS) induced colitis; format: in vivo

With `CCCC[S+]([O-])c1sc2nc(-c3cccs3)cc(-c3ccccc3)c2c1N` (stereo not shown) [SW033291, 2-(butylsulfinyl)-4-phenyl-6-(thiophen-2-yl)thieno[2,3-b]pyridin-3-amine] the “V9M reporter activity ([…])” value [1] was 93.16%, the “V9M reporter activity ([…])” value ([1]; 100 = doubling) was 98.24% and the “PGE2 levels in the medium, ranking” value (A549 cells; 100 nM drug, 15-PGDH inhibitors) was “next highest level of PGE2”. The “Effect on PGE2 levels in medium, in words” value (A549 cells; IL1-beta stimulated A549 cells) was “clear inhibition of 15-PGDH activity”, the PGE2 levels achieved (A549 cells; IL-1β 16 h, compound 8 h, highest level of titration) was 3000 pg/mL and the Hepatocyte stability (Hepatocyte stability) was “Stable > couple hrs”. For the same molecule, the “Percent blood chimerism of CD45.2 marked cells” value [2] was “significantly increased”, the “Hepatic mitosis, in words” value (C57BL/6J and FVB mice; C57BL/6J, 5 mg/kg IP daily) was “significantly increased hepatic mitosis versus controls on days 3 and 4” and the “Serum ALT levels” value (C57BL/6J and FVB mice; one mouse, 5 mg/kg IP twice daily) was “lower”. For the same molecule, the “BrdU positive cells in liver, in words” value (C57BL/6J and FVB mice; post-operative day 2) was “clear increase in numbers of BrdU positive cells”, the “Body weight versus control, in words” value (FVB male mice; 5 mg/kg IP twice daily) was “greater weight at all time points; also recorded: greater body weight” and the Ulcer formation (FVB male mice; colonoscopy days 8, 11, 15) was “prevents two-thirds of ulcer formation”. For the same molecule, the “Colon length versus control, in words” value (FVB male mice; day 22) was “greater colon lengths”.

Reference: US10301320B2, “Compositions and methods of modulating 15-PGDH activity” (CASE WESTERN RESERVE UNIVERSITY, priority 2012, dated 2019)
